# Reference: patent US7250521B2, “Method for production of Δ1-pyrrolines” (Bayer CropScience Aktiengesellschaft, priority 2001, dated 2007)
# Test: logP determination by HPLC on reverse-phase column (C 18), EEC directive 79/831 Annex V.A8
# Assay type: physicochemical
# Procedure: In the acidic range, the determination is carried out at pH 2.3 using the mobile phases 0.1% aqueous phosphoric acid and acetonitrile; linear gradient from 10% acetonitrile to 90% acetonitrile.
# In the neutral range, the determination is carried out at pH 7.5 using the mobile phases 0.01 molar aqueous phosphate buffer solution and acetonitrile; linear gradient from 10% acetonitrile to 90% acetonitrile.
# [1] = reverse-phase HPLC column (C 18), pH 2.3, acidic range, pH 2.3; 0.1% aqueous phosphoric acid/acetonitrile gradient; 43° C.; values marked a)
# [2] = reverse-phase HPLC column (C 18), pH 7.5, neutral range, pH 7.5; 0.01 molar aqueous phosphate buffer/acetonitrile gradient; 43° C.; values marked b)
Structure (SMILES),chromatographic logP [1],chromatographic logP [2],"chromatographic logP (acidic range, pH 2.3; 0.1% aqueous phosphoric acid/acetonitrile gradient; 43° C.; values marked a))"
Cc1ccc(C2CCC(c3ccccc3Br)=N2)c(C)c1 (stereo not shown) [Example 80],2.55,4.46,
Cc1ccc(C2CCC(c3ccccc3Br)=N2)cc1 (stereo not shown) [Example 81],2.17,4.07,
Clc1ccc(C2CCC(c3ccccc3Cl)=N2)cc1 (stereo not shown) [Example 82],2.6,4.23,
Clc1ccc(C2CCC(c3ccccc3Br)=N2)cc1 (stereo not shown) [Example 83],2.96,4.22,
CC(=O)c1ccc(C2CCC(c3ccccc3Br)=N2)cc1 (stereo not shown) [Example 84],2.14,3.09,
CSc1ccc(C2CCC(c3ccccc3F)=N2)cc1 (stereo not shown) [Example 85],1.62,3.88,
COc1ccc(C2CCC(c3ccccc3Cl)=N2)cc1 (stereo not shown) [Example 86],1.66,3.47,
COc1ccc(C2CCC(c3ccccc3F)=N2)cc1 (stereo not shown) [Example 87],1.21,3.32,
Brc1ccccc1C1=NC(c2ccc(CCc3ccccc3)cc2)CC1 (stereo not shown) [Example 88],3.77,5.35,
Clc1ccccc1C1=NC(c2ccc(Br)cc2)CC1 (stereo not shown) [Example 89],2.76,4.36,
Clc1ccc(C2=NC(c3ccccc3)CC2)cc1 (stereo not shown) [Example 90],1.43,,
Clc1ccccc1C1=NC(c2ccccc2)CC1 (stereo not shown) [Example 91],1.64,3.61,
Clc1ccc(C2=NC(c3ccc(Br)cc3)CC2)cc1 (stereo not shown) [Example 92],2.17,,
Fc1cccc(F)c1C1=NC(c2ccccc2)CC1 (stereo not shown) [Example 93],1.75,,
Cc1ccccc1C1=NC(c2ccccc2)CC1 (stereo not shown) [Example 94],1.29,3.7,
Fc1ccc(C2CCC(c3ccccc3Cl)=N2)cc1 (stereo not shown) [Example 95],2,3.68,
CCOC(=O)Oc1ccc(-c2ccc(C3CCC(c4ccccc4Cl)=N3)cc2)cc1 (stereo not shown) [Example 96],3.14,,
Fc1ccccc1C1=NC(c2ccc(Br)cc2)CC1 (stereo not shown) [Example 97],1.83,,
Brc1ccc(C2CCC(c3ccccc3Br)=N2)cc1 (stereo not shown) [Example 98],3.11,,
Fc1ccc(C2CCC(c3ccccc3Br)=N2)cc1 (stereo not shown) [Example 99],2.18,,
Fc1ccc(C2CCC(c3ccc(Br)cc3)=N2)cc1 (stereo not shown) [Example 100],1.73,4.14,

Structure (SMILES),chromatographic logP [1],chromatographic logP [2],"chromatographic logP (acidic range, pH 2.3; 0.1% aqueous phosphoric acid/acetonitrile gradient; 43° C.; values marked a))"
FC(F)(F)Oc1ccc(-c2ccc(C3CCC(c4ccc(Br)cc4)=N3)cc2)cc1 (stereo not shown) [Example 101],3.51,5.95,
FC(F)(F)Oc1ccc(-c2ccc(C3CCC(c4ccccc4Br)=N3)cc2)cc1 (stereo not shown) [Example 102],4.52,5.56,
CC(C)Oc1cc(-c2ccccc2)ccc1C1CCC(c2ccccc2Cl)=N1 (stereo not shown) [Example 103],3.26,,
Oc1ccc(C2CCC(c3ccccc3F)=N2)cc1 (stereo not shown) [Example 104],0.59,,
FC(F)(F)Oc1ccc(C2=NC(c3cccc(Cl)c3)CC2)cc1 (stereo not shown) [Example 105],4.87,,
Oc1ccc(C2CCC(c3c(F)cccc3F)=N2)cc1 (stereo not shown) [Example 106],0.91,,
Fc1cccc(F)c1C1=NC(c2ccc(OCc3ccc(Cl)cc3)cc2)CC1 (stereo not shown) [Example 107],3.26,,
Fc1cccc(F)c1C1=NC(c2ccc(OCc3ccc(C(F)(F)F)cc3)cc2)CC1 (stereo not shown) [Example 108],3.41,,
Fc1cccc(F)c1C1=NC(c2ccc(OCc3ccc(OC(F)(F)F)cc3)cc2)CC1 (stereo not shown) [Example 109],3.61,,
CC(C)Oc1ccc(C2CCC(c3c(F)cccc3F)=N2)cc1 (stereo not shown) [Example 110],2.14,,
Cc1cc(OC(F)(F)F)ccc1-c1ccc(C2CCC(c3c(F)cccc3F)=N2)cc1 (stereo not shown) [Example 111],4.55,,
Cc1cc(-c2ccc(C3CCC(c4c(F)cccc4F)=N3)cc2)ccc1OC(F)(F)F (stereo not shown) [Example 112],4.57,,
Fc1cccc(F)c1C1=NC(c2ccc(-c3ccc(Br)cc3)cc2)CC1 (stereo not shown) [Example 113],3.98,,
Fc1cc(F)c(C2=NC(c3ccc(-c4ccc(SC(F)(F)F)cc4)cc3)CC2)c(F)c1 (stereo not shown) [Example 114],5.05,,
Fc1ccc(F)c(C2=NC(c3ccc(-c4ccc(SC(F)(F)F)cc4)cc3)CC2)c1F (stereo not shown) [Example 115],5.46,,
COc1ccc(C2=NC(c3ccc(-c4ccc(OC(F)(F)F)cc4)cc3)CC2)cc1 (stereo not shown) [Example 116],2.94,,
Fc1cc(F)c(C2=NC(c3ccc(-c4ccc(OC(F)(F)F)cc4)cc3)CC2)c(F)c1 (stereo not shown) [Example 117],4.57,,
Fc1ccc(F)c(C2=NC(c3ccc(-c4ccc(OC(F)(F)F)cc4)cc3)CC2)c1F (stereo not shown) [Example 118],5.05,,
"O=C1CCC(c2ccc(OC(F)(F)F)cc2)N1 (stereo not shown) [Example V-1, 5-[4-(trifluoromethoxy)phenyl]-2-pyrrolidinone]",2,,
"CCOc1cc(C(C)(C)C)ccc1C1CCC(=O)N1 (stereo not shown) [Example V-3, 5-(4-tert-butyl-2-ethoxyphenyl)-2-pyrrolidinone]",2.84,,
CC(C)(C)c1ccc(C2CCC(=O)N2)cc1 (stereo not shown) [Example V-4],1.9,,

Structure (SMILES),chromatographic logP [1],chromatographic logP [2],"chromatographic logP (acidic range, pH 2.3; 0.1% aqueous phosphoric acid/acetonitrile gradient; 43° C.; values marked a))"
CC(C)c1ccc(C2CCC(=O)N2)cc1 (stereo not shown) [Example V-5],2.13,,
Cc1cc(Cl)ccc1C1CCC(=O)N1 (stereo not shown) [Example V-6],1.86,,
Cc1ccc(C2CCC(=O)N2)c(Cl)c1 (stereo not shown) [Example V-7],1.92,,
O=C1CCC(c2ccc(Cl)cc2Cl)N1 (stereo not shown) [Example V-8],2.02,,
COc1ccc(C2CCC(=O)N2)cc1F (stereo not shown) [Example V-9],1.29,,
O=C1CCC(c2ccc(Cl)c(Cl)c2)N1 (stereo not shown) [Example V-10],1.92,,
O=C1CCC(c2ccc(Cl)cc2)N1 (stereo not shown) [Example V-11],,,1.61
Cc1ccc(C2CCC(=O)N2)cc1Cl (stereo not shown) [Example V-12],1.92,,
O=C1CCC(c2ccc(F)c(F)c2)N1 (stereo not shown) [Example V-13],1.43,,
Cc1ccc(C2CCC(=O)N2)cc1 (stereo not shown) [Example V-14],1.52,,
O=C1CCC(c2ccccc2)N1 (stereo not shown) [Example V-15],1.21,,
O=C1CCC(c2ccc(Br)cc2)N1 (stereo not shown) [Example V-16],1.72,,
O=C1CCC(c2ccc(F)cc2)N1 (stereo not shown) [Example V-17],1.32,,
O=C1CCC(c2ccc(-c3ccc(O)cc3)cc2)N1 (stereo not shown) [Example V-18],1.47,,
O=C1CCC(c2ccc(O)cc2)N1 (stereo not shown) [Example V-19],0.55,,
CCOC(=O)Oc1ccc(-c2ccc(C3CCC(=O)N3)cc2)cc1 (stereo not shown) [Example V-20],2.39,,
CC(C)Oc1ccc(-c2ccc(C3CCC(=O)N3)cc2)cc1 (stereo not shown) [Example V-21],2.77,,
O=C1CCC(c2ccc(-c3ccc(OCc4ccc(Cl)cc4)cc3)cc2)N1 (stereo not shown) [Example V-22],3.62,,
O=C1CCC(c2ccc(-c3ccc(OCc4ccc(OC(F)(F)F)cc4)cc3)cc2)N1 (stereo not shown) [Example V-23],3.83,,
O=C1CCC(c2ccc(SC(F)(F)F)cc2)N1 (stereo not shown) [Example V-25],1.59,,
CC(C)(C)Sc1ccc(C2CCC(=O)N2)cc1 (stereo not shown) [Example V-26],2.69,,

Structure (SMILES),chromatographic logP [1],chromatographic logP [2],"chromatographic logP (acidic range, pH 2.3; 0.1% aqueous phosphoric acid/acetonitrile gradient; 43° C.; values marked a))"
O=C1CCC(c2ccc(-c3ccc(OC(F)(F)F)cc3)cc2)N1 (stereo not shown) [Example V-27],2.96,,
O=C1CCC(c2ccc(-c3ccc(Br)cc3)cc2)N1 (stereo not shown) [Example V-28],2.76,,
"CC(C)(C)OC(=O)N1C(=O)C(C(=O)c2ccccc2Br)CC1c1ccc(OC(F)(F)F)cc1 (stereo not shown) [II-1, tert-butyl 3-(2-bromobenzoyl)-2-oxo-5-[4-(trifluoromethoxy)phenyl]-1-pyrrolidinecarboxylate]",,3.35,
CC(C)(C)OC(=O)N1C(=O)C(C(=O)c2ccc(Cl)cc2)CC1c1ccc(F)cc1 (stereo not shown) [II-2],4.13,,
CC(C)(C)OC(=O)N1C(=O)C(C(=O)c2ccccc2C(F)(F)F)CC1c1ccc(Br)cc1 (stereo not shown) [II-3],,3.03,
Cc1ccccc1C(=O)C1CC(c2ccc(C(C)C)cc2)N(C(=O)OC(C)(C)C)C1=O (stereo not shown) [II-5],,5.05,
CC(C)(C)OC(=O)N1C(=O)C(C(=O)c2ccc(Cl)c(Cl)c2)CC1c1ccccc1 (stereo not shown) [II-6],,4.6,
"CC(C)(C)OC(=O)N1C(=O)CCC1c1ccc(OC(F)(F)F)cc1 (stereo not shown) [III-1, tert-butyl 2-oxo-5-[4-(trifluoromethoxy)phenyl]-1-pyrrolidinecarboxylate]",3.28,,
CC(C)(C)OC(=O)N1C(=O)CCC1c1ccccc1 (stereo not shown) [III-2],2.52,,
CC(C)(C)OC(=O)N1C(=O)CCC1c1ccc(-c2ccc(SC(F)(F)F)cc2)cc1 (stereo not shown) [III-3],4.67,,
CC(C)(C)OC(=O)N1C(=O)CCC1c1ccc(C(C)(C)C)cc1 (stereo not shown) [III-4],3.92,,
CC(C)c1ccc(C2CCC(=O)N2C(=O)OC(C)(C)C)cc1 (stereo not shown) [III-5],3.65,,
Cc1cc(Cl)ccc1C1CCC(=O)N1C(=O)OC(C)(C)C (stereo not shown) [III-6],3.24,3.25,
COc1ccc(C2CCC(=O)N2C(=O)OC(C)(C)C)cc1F (stereo not shown) [III-7],2.43,,
COc1ccc(C2CCC(=O)N2C(=O)OC(C)(C)C)cc1 (stereo not shown) [III-8],2.43,,
Cc1ccc(C2CCC(=O)N2C(=O)OC(C)(C)C)c(Cl)c1 (stereo not shown) [III-9],3.83,,
CC(C)(C)OC(=O)N1C(=O)CCC1c1ccc(Cl)cc1Cl (stereo not shown) [III-10],3.54,,
CC(C)(C)OC(=O)N1C(=O)CCC1c1ccc(Cl)c(Cl)c1 (stereo not shown) [III-11],3.29,,
CC(C)(C)OC(=O)N1C(=O)CCC1c1ccc(F)c(F)c1 (stereo not shown) [III-12],2.67,,
CC(C)(C)OC(=O)N1C(=O)CCC1c1ccc(Cl)cc1 (stereo not shown) [III-13],2.93,,
